The test system of the experiment is S. aureus LSLT1111. As to the kind of experiment: Antibiogram of S. aureus LSLT1111.
As to `CC1(C)S[C@@H]2[C@H](NC(=O)[C@H](N)c3ccccc3)C(=O)N2[C@H]1C(=O)O` [Ampicillin], the “Diameter of clear area” value was determined as 12.6 mm and the Sensitivity to antibiotic result was “Resistant”.

With `CC(=O)OCC1=C(C(=O)O)N2C(=O)[C@@H](NC(=O)Cc3cccs3)[C@H]2SC1` [Cephalothin], the “Diameter of clear area” value was found to be 28.8 mm and the Sensitivity to antibiotic entry is “Sensitive”.

For the compound `O=C(N[C@H](CO)[C@H](O)c1ccc([N+](=O)[O-])cc1)C(Cl)Cl` [Chloramphenicol], the “Diameter of clear area” value is 18.6 mm and the Sensitivity to antibiotic entry was “Sensitive”.

For `CC[C@H]1OC(=O)[C@H](C)[C@@H](O[C@H]2C[C@@](C)(OC)[C@@H](O)[C@H](C)O2)[C@H](C)[C@@H](O[C@@H]2O[C@H](C)C[C@H](N(C)C)[C@H]2O)[C@](C)(O)C[C@@H](C)C(=O)[C@H](C)[C@@H](O)[C@]1(C)O` [Erythromycin], the “Diameter of clear area” value was found to be 17.3 mm and the Sensitivity to antibiotic entry was “Resistant/Sensitive”.

For the compound `CCC[C@@H]1C[C@@H](C(=O)N[C@@H]([C@H]2O[C@H](SC)[C@H](O)[C@@H](O)[C@H]2O)[C@@H](C)O)N(C)C1` [Lincomycin], the “Diameter of clear area” value was 16.7 mm and the Sensitivity to antibiotic entry is listed as “Resistant/Sensitive”.

Turning to `COc1cccc(OC)c1C(=O)N[C@@H]1C(=O)N2[C@@H]1SC(C)(C)[C@@H]2C(=O)O` [Meticillin], the “Diameter of clear area” value amounted to 23.3 mm and the Sensitivity to antibiotic entry was “Sensitive”.

As to `CN(C)[C@@H]1C(=O)C(C(N)=O)=C(O)[C@@]2(O)C(=O)C3=C(O)c4c(O)cccc4[C@@](C)(O)[C@H]3C[C@@H]12` [Tetracyclin], the “Diameter of clear area” value is given as 19.8 mm and the Sensitivity to antibiotic result is recorded as “Sensitive”.

In the case of `CN[C@H](CC(C)C)C(=O)N[C@H]1C(=O)N[C@@H](CC(N)=O)C(=O)N[C@H]2C(=O)N[C@H]3C(=O)N[C@H](C(=O)N[C@H](C(=O)O)c4cc(O)cc(O)c4-c4cc3ccc4O)[C@H](O)c3ccc(c(Cl)c3)Oc3cc2cc(c3O[C@@H]2O[C@H](CO)[C@@H](O)[C@H](O)[C@H]2O[C@H]2C[C@](C)(N)[C@H](O)[C@H](C)O2)Oc2ccc(cc2Cl)[C@H]1O` [Vancomycin], the “Diameter of clear area” value is recorded as 11.9 mm and the Sensitivity to antibiotic entry is reported as “Sensitive”.

Turning to Amox. Clav. ac, the “Diameter of clear area” value was determined as 28.0 mm and the Sensitivity to antibiotic entry is “Sensitive”.

Consider Gentamicin, for which the “Diameter of clear area” value is given as 16.6 mm and the Sensitivity to antibiotic result is “Sensitive”.

Turning to Neomycin, the “Diameter of clear area” value is on record as 14.7 mm and the Sensitivity to antibiotic entry was “Resistant/Sensitive”.

Turning to Penicillin, the “Diameter of clear area” value was determined as 9.0 mm and the Sensitivity to antibiotic entry is “Resistant”.

On to Sulpha/trimethoprim, for which the “Diameter of clear area” value turned out to be 18.8 mm and the Sensitivity to antibiotic result was “Sensitive”.
